Assays:
Assay type in all cases: functional
[1] = tested on: SF-539; assay: Growth inhibition of human SF539 cells assessed as cell growth incubated for 48 hrs by sulforhodamine B assay; design: scale not given: the % may be the effect or the level left
[2] = tested on: UO-31; assay: Growth inhibition of human UO31 cells assessed as cell growth incubated for 48 hrs by sulforhodamine B assay; design: concentration or dose not given beside the values
[3] = tested on: PC-3; assay: Growth inhibition of human PC3 cells assessed as cell growth incubated for 48 hrs by sulforhodamine B assay; design: concentration or dose not given beside the values
[4] = tested on: DU-145; assay: Growth inhibition of human DU145 cells assessed as cell growth incubated for 48 hrs by sulforhodamine B assay; design: concentration or dose not given beside the values
[5] = tested on: MDA-MB-468; assay: Growth inhibition of human MDA-MB-468 cells assessed as cell growth incubated for 48 hrs by sulforhodamine B assay; design: concentration or dose not given beside the values
[6] = tested on: IGROV-1; assay: Growth inhibition of human IGROV1 cells assessed as cell growth incubated for 48 hrs by sulforhodamine B assay; design: scale not given: the % may be the effect or the level left
[7] = tested on: COLO 205; assay: Growth inhibition of human COLO205 cells assessed as cell growth incubated for 48 hrs by sulforhodamine B assay; design: concentration or dose not given beside the values
[8] = tested on: HOP-62; assay: Growth inhibition of human HOP62 cells assessed as cell growth incubated for 48 hrs by sulforhodamine B assay; design: concentration or dose not given beside the values
[9] = tested on: KM12; assay: Growth inhibition of human KM12 cells assessed as cell growth incubated for 48 hrs by sulforhodamine B assay; design: concentration or dose not given beside the values
[10] = tested on: NCI-H322M; assay: Growth inhibition of human NCI-H322M cells assessed as cell growth incubated for 48 hrs by sulforhodamine B assay; design: scale not given: the % may be the effect or the level left
[11] = tested on: MOLT-4; assay: Growth inhibition of human MOLT4 cells assessed as cell growth incubated for 48 hrs by sulforhodamine B assay; design: concentration or dose not given beside the values
[12] = tested on: HCT-15; assay: Growth inhibition of human HCT15 cells assessed as cell growth incubated for 48 hrs by sulforhodamine B assay; design: scale not given: the % may be the effect or the level left
[13] = tested on: SNB-75; assay: Growth inhibition of human SNB75 cells assessed as cell growth incubated for 48 hrs by sulforhodamine B assay; design: concentration or dose not given beside the values
[14] = tested on: ACHN; assay: Growth inhibition of human ACHN cells assessed as cell growth incubated for 48 hrs by sulforhodamine B assay; design: scale not given: the % may be the effect or the level left
[15] = tested on: SW-620; assay: Growth inhibition of human SW620 cells assessed as cell growth incubated for 48 hrs by sulforhodamine B assay; design: concentration or dose not given beside the values
[16] = tested on: CAKI-1; assay: Growth inhibition of human Caki1 cells assessed as cell growth incubated for 48 hrs by sulforhodamine B assay; design: concentration or dose not given beside the values
[17] = tested on: HOP-92; assay: Growth inhibition of human HOP92 cells assessed as cell growth incubated for 48 hrs by sulforhodamine B assay; design: concentration or dose not given beside the values
[18] = tested on: UACC-62; assay: Growth inhibition of human UACC62 cells assessed as cell growth incubated for 48 hrs by sulforhodamine B assay; design: concentration or dose not given beside the values
[19] = tested on: A498; assay: Growth inhibition of human A498 cells assessed as cell growth incubated for 48 hrs by sulforhodamine B assay; design: concentration or dose not given beside the values
[20] = tested on: TK-10; assay: Growth inhibition of human TK10 cells assessed as cell growth incubated for 48 hrs by sulforhodamine B assay; design: concentration or dose not given beside the values
[21] = tested on: HCT-116; assay: Growth inhibition of human HCT116 cells assessed as cell growth incubated for 48 hrs by sulforhodamine B assay; design: concentration or dose not given beside the values
[22] = tested on: NCI-H460; assay: Growth inhibition of human NCI-H460 cells assessed as cell growth incubated for 48 hrs by sulforhodamine B assay; design: concentration or dose not given beside the values
[23] = tested on: HT-29; assay: Growth inhibition of human HT-29 cells assessed as cell growth incubated for 48 hrs by sulforhodamine B assay; design: concentration or dose not given beside the values
[24] = tested on: OVCAR-8; assay: Growth inhibition of human OVCAR8 cells assessed as cell growth incubated for 48 hrs by sulforhodamine B assay; design: concentration or dose not given beside the values
[25] = tested on: SF-295; assay: Growth inhibition of human SF295 cells assessed as cell growth incubated for 48 hrs by sulforhodamine B assay; design: concentration or dose not given beside the values
[26] = tested on: OVCAR-4; assay: Growth inhibition of human OVCAR4 cells assessed as cell growth incubated for 48 hrs by sulforhodamine B assay; design: concentration or dose not given beside the values
[27] = tested on: SK-MEL-5; assay: Growth inhibition of human SK-MEL-5 cells assessed as cell growth incubated for 48 hrs by sulforhodamine B assay; design: concentration or dose not given beside the values
[28] = tested on: BT-549; assay: Growth inhibition of human BT549 cells assessed as cell growth incubated for 48 hrs by sulforhodamine B assay; design: concentration or dose not given beside the values
[29] = tested on: U-251; assay: Growth inhibition of human U251 cells assessed as cell growth incubated for 48 hrs by sulforhodamine B assay; design: concentration or dose not given beside the values
[30] = tested on: MDA-MB-435; assay: Growth inhibition of human MDA-MB-435 cells assessed as cell growth incubated for 48 hrs by sulforhodamine B assay; design: concentration or dose not given beside the values
[31] = tested on: OVCAR-3; assay: Growth inhibition of human OVCAR3 cells assessed as cell growth incubated for 48 hrs by sulforhodamine B assay; design: concentration or dose not given beside the values
[32] = tested on: SN12C; assay: Growth inhibition of human SN12C cells assessed as cell growth incubated for 48 hrs by sulforhodamine B assay; design: concentration or dose not given beside the values
[33] = tested on: SK-MEL-2; assay: Growth inhibition of human SK-MEL-2 cells assessed as cell growth incubated for 48 hrs by sulforhodamine B assay; design: concentration or dose not given beside the values
[34] = tested on: CCRF-CEM; assay: Growth inhibition of human CCRF-CEM cells assessed as cell growth incubated for 48 hrs by sulforhodamine B assay; design: concentration or dose not given beside the values
[35] = tested on: Malme-3M; assay: Growth inhibition of human MALME-3M cells assessed as cell growth incubated for 48 hrs by sulforhodamine B assay; design: scale not given: the % may be the effect or the level left
[36] = tested on: SNB-19; assay: Growth inhibition of human SNB19 cells assessed as cell growth incubated for 48 hrs by sulforhodamine B assay; design: concentration or dose not given beside the values
[37] = tested on: HCC 2998; assay: Growth inhibition of human HCC2998 cells assessed as cell growth incubated for 48 hrs by sulforhodamine B assay; design: concentration or dose not given beside the values
[38] = tested on: SK-MEL-28; assay: Growth inhibition of human SK-MEL-28 cells assessed as cell growth incubated for 48 hrs by sulforhodamine B assay; design: concentration or dose not given beside the values
[39] = tested on: SK-OV-3; assay: Growth inhibition of human SKOV3 cells assessed as cell growth incubated for 48 hrs by sulforhodamine B assay; design: concentration or dose not given beside the values
[40] = tested on: NCI-H522; assay: Growth inhibition of human NCI-H522 cells assessed as cell growth incubated for 48 hrs by sulforhodamine B assay; design: concentration or dose not given beside the values
[41] = tested on: HL-60(TB); assay: Growth inhibition of human HL-60(TB) cells assessed as cell growth incubated for 48 hrs by sulforhodamine B assay; design: concentration or dose not given beside the values
[42] = tested on: K562; assay: Growth inhibition of human K562 cells assessed as cell growth incubated for 48 hrs by sulforhodamine B assay; design: concentration or dose not given beside the values
[43] = tested on: A549; assay: Growth inhibition of human A549/ATCC cells assessed as cell growth incubated for 48 hrs by sulforhodamine B assay; design: concentration or dose not given beside the values
[44] = tested on: NCI-H226; assay: Growth inhibition of human NCI-H226 cells assessed as cell growth incubated for 48 hrs by sulforhodamine B assay; design: concentration or dose not given beside the values
[45] = tested on: 786-0; assay: Growth inhibition of human 786-0 cells assessed as cell growth incubated for 48 hrs by sulforhodamine B assay; design: concentration or dose not given beside the values
[46] = tested on: RXF 393; assay: Growth inhibition of human RXF393 cells assessed as cell growth incubated for 48 hrs by sulforhodamine B assay; design: concentration or dose not given beside the values
[47] = tested on: MDA-MB-231; assay: Growth inhibition of human MDA-MB-231 cells assessed as cell growth incubated for 48 hrs by sulforhodamine B assay; design: concentration or dose not given beside the values
[48] = tested on: NCI-H23; assay: Growth inhibition of human NCI-H23 cells assessed as cell growth incubated for 48 hrs by sulforhodamine B assay; design: concentration or dose not given beside the values
[49] = tested on: SR; assay: Growth inhibition of human SR cells assessed as cell growth incubated for 48 hrs by sulforhodamine B assay; design: concentration or dose not given beside the values
[50] = tested on: NCI/ADR-RES; assay: Growth inhibition of human NCI/ADR-RES cells assessed as cell growth incubated for 48 hrs by sulforhodamine B assay; design: concentration or dose not given beside the values
[51] = tested on: RPMI-8226; assay: Growth inhibition of human RPMI8226 cells assessed as cell growth incubated for 48 hrs by sulforhodamine B assay; design: concentration or dose not given beside the values
[52] = tested on: MCF7; assay: Growth inhibition of human MCF7 cells assessed as cell growth incubated for 48 hrs by sulforhodamine B assay; design: concentration or dose not given beside the values
[53] = tested on: OVCAR-5; assay: Growth inhibition of human OVCAR5 cells assessed as cell growth incubated for 48 hrs by sulforhodamine B assay; design: scale not given: the % may be the effect or the level left
[54] = tested on: SF-268; assay: Growth inhibition of human SF268 cells assessed as cell growth incubated for 48 hrs by sulforhodamine B assay; design: concentration or dose not given beside the values
[55] = tested on: UACC-257; assay: Growth inhibition of human UACC257 cells assessed as cell growth incubated for 48 hrs by sulforhodamine B assay; design: concentration or dose not given beside the values
[56] = tested on: T47D; assay: Growth inhibition of human T47D cells assessed as cell growth incubated for 48 hrs by sulforhodamine B assay; design: concentration or dose not given beside the values
[57] = tested on: M14; assay: Growth inhibition of human M14 cells assessed as cell growth incubated for 48 hrs by sulforhodamine B assay; design: concentration or dose not given beside the values
[58] = tested on: Hs-578T; assay: Growth inhibition of human Hs 578T cells assessed as cell growth incubated for 48 hrs by sulforhodamine B assay; design: concentration or dose not given beside the values
[59] = tested on: LOX IMVI; assay: Growth inhibition of human LOXIMVI cells assessed as cell growth incubated for 48 hrs by sulforhodamine B assay; design: concentration or dose not given beside the values

Molecule `O=C([O-])CCc1ccc2c(=O)c3sc4c(=O)c5ccccc5c(=O)c4c3c(=O)c2c1.[Na+]` has an Activity [1] of -99.93%, an Activity [2] of -62.16% and an Activity [3] of 4.12%. For the same molecule, the Activity [4] was -94.06%, the Activity [5] was -23.55% and the Activity [6] was -45.75%. The Activity [7] was -95.3%, the Activity [8] was -94.95% and the Activity [9] was -4.86%. The Activity [10] was -96.32%, the Activity [11] was -18.02% and the Activity [12] was -51.47%. It also gave an Activity [13] of -92.01%, an Activity [14] of 3.07% and an Activity [15] of -35.47%. It also gave an Activity [16] of -11.28%, an Activity [17] of 21.71% and an Activity [18] of -86.72%. For the same molecule, the Activity [19] was -94.19%, the Activity [20] was -13.65% and the Activity [21] was -11.85%. It also gave an Activity [22] of -47.6%, an Activity [23] of -35.38% and an Activity [24] of -11.99%. For the same molecule, the Activity [25] was -92.24%, the Activity [26] was 3.01% and the Activity [27] was -98.11%. The Activity [28] was -93.17%, the Activity [29] was -19.72% and the Activity [30] was -79.57%. It also gave an Activity [31] of -20.41%, an Activity [32] of -86.04% and an Activity [33] of -61.62%. For the same molecule, the Activity [34] was -11.89%, the Activity [35] was -95.72% and the Activity [36] was -46.21%. The Activity [37] was -78.44%, the Activity [38] was -86.88% and the Activity [39] was -20.08%. It also gave an Activity [40] of -56.08%, an Activity [41] of -1.51% and an Activity [42] of 1.66%. It also gave an Activity [43] of -52.48%, an Activity [44] of -50.22% and an Activity [45] of -36.85%. The Activity [46] was -40.51%, the Activity [47] was 7.51% and the Activity [48] was -48.38%. The Activity [49] was -13.25%, the Activity [50] was -16.65% and the Activity [51] was -23.33%. It also gave an Activity [52] of -42.17%, an Activity [53] of -91.27% and an Activity [54] of -4.66%. The Activity [55] was -93.7%, the Activity [56] was 30.96% and the Activity [57] was -92.46%. For the same molecule, the Activity [58] was -2.26% and the Activity [59] was -79.48%.
